# Activity calls are given as the source filed them. No cut-off for these calls is given here.
# What was measured:
# [1] = biological target: RAC-alpha serine/threonine-protein kinase (Homo sapiens) (UniProt P31749); test: Inhibition of recombinant human full-length His-tagged AKT1 expressed in insect cells at 2 uM using Ser/Thr 06 as substrate measured after 1 hr by Z'-LYTE assay relative to control; details: Insect cell
# [2] = biological target: ALK tyrosine kinase receptor (Homo sapiens) (UniProt Q9UM73); test: Inhibition of recombinant human GST-tagged ALK (1058 to 1620 residues) expressed in insect cells at 2 uM using Tyr 01 as substrate measured after 1 hr by Z'-LYTE assay relative to control; details: Insect cell
# [3] = biological target: Calcium/calmodulin-dependent protein kinase type II subunit beta (Homo sapiens) (UniProt Q13554); test: Inhibition of recombinant human full-length His-tagged CAMK2B expressed in insect cells at 2 uM using Ser/Thr 17 as substrate measured after 1 hr by Z'-LYTE assay relative to control; details: Insect cell
# [4] = biological target: Serine/threonine-protein kinase DCLK2 (Homo sapiens) (UniProt Q8N568); test: Inhibition of recombinant human full-length GST-tagged DCAMKL2 expressed in baculovirus expression system at 2 uM using Ser/Thr 17 as substrate measured after 1 hr by Z'-LYTE assay relative to control
# [5] = biological target: Ephrin type-A receptor 1 (Homo sapiens) (UniProt P21709); test: Inhibition of recombinant human GST-tagged EPHA1 (568-976 residues) expressed in insect cells at 2 uM using Tyr 02 as substrate measured after 1 hr by Z'-LYTE assay relative to control; details: Insect cell
# [6] = biological target: Ephrin type-B receptor 3 (Homo sapiens) (UniProt P54753); test: Inhibition of recombinant human GST-tagged EPHB3 (623-907 residues) expressed in insect cells at 2 uM using Tyr 02 as substrate measured after 1 hr by Z'-LYTE assay relative to control; details: Insect cell
# [7] = biological target: Fibroblast growth factor receptor 4 (Homo sapiens) (UniProt P22455); test: Inhibition of recombinant human His-tagged FGFR4 ([…] residues) expressed in insect cells at 2 uM using Tyr 04 as substrate measured after 1 hr by Z'-LYTE assay relative to control; details: Insect cell
# Chain of Fibroblast growth factor receptor 4 (Homo sapiens) (P22455 22-802 limits assumed): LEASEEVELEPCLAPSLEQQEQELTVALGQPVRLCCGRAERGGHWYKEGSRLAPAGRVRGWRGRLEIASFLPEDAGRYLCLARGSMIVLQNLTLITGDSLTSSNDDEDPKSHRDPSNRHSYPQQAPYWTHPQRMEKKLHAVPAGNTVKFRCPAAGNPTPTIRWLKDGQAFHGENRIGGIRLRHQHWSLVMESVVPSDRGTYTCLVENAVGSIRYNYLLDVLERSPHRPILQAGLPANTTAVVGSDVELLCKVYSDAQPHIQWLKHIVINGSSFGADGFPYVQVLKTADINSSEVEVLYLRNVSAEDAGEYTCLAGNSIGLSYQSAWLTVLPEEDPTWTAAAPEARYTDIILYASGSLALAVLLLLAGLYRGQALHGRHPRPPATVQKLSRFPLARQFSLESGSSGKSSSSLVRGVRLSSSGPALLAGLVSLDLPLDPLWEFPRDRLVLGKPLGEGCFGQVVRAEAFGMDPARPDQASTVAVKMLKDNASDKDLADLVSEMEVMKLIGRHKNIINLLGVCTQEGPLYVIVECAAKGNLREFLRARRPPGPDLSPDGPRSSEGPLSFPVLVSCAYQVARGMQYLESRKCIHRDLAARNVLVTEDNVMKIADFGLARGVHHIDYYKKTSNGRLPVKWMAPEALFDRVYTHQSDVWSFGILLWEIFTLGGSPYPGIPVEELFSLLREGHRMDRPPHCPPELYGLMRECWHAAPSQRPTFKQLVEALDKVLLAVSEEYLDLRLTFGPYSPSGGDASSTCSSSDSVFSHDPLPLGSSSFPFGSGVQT
# [8] = biological target: Vascular endothelial growth factor receptor 3 (Homo sapiens) (UniProt P35916); test: Inhibition of recombinant human GST-tagged FLT4 (800-1297 residues) expressed in insect cells at 2 uM using Tyr 04 as substrate measured after 1 hr by Z'-LYTE assay relative to control; details: Insect cell
# Chain of Vascular endothelial growth factor receptor 3 (Homo sapiens) (P35916 whole entry, the tested form may be a part): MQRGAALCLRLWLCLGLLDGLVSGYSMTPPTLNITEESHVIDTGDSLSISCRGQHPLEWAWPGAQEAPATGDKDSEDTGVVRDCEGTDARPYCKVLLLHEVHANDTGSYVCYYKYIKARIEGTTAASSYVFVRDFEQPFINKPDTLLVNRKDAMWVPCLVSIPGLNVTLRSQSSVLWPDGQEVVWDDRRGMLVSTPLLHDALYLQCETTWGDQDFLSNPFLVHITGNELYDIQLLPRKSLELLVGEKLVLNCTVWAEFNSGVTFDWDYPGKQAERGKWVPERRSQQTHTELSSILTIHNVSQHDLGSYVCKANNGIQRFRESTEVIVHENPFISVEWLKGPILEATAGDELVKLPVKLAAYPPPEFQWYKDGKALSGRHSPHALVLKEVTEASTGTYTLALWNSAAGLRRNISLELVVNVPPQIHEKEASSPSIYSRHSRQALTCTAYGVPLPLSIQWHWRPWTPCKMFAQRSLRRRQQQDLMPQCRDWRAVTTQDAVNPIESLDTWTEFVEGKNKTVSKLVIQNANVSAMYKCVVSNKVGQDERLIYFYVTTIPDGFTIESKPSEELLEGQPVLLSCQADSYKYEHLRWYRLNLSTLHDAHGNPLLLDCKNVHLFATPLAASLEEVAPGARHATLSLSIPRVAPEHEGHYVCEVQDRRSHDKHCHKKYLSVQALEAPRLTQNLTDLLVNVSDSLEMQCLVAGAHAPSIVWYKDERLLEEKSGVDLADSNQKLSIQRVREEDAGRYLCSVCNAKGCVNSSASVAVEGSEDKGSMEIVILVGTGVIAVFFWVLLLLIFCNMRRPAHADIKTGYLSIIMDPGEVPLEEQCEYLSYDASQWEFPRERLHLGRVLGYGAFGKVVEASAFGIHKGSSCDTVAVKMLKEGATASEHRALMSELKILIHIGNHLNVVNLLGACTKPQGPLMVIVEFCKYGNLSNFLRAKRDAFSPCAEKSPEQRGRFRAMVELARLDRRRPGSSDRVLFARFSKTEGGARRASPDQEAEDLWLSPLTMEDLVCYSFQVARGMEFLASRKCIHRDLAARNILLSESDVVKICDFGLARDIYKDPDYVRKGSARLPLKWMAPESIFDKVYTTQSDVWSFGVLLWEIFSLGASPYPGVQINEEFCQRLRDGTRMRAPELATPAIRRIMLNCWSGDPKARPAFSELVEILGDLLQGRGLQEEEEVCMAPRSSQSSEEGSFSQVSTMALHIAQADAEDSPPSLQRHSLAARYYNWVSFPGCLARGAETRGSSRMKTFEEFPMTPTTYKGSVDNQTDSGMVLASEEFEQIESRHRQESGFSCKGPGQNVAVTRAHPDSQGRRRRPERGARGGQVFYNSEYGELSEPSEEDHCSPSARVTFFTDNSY
# [9] = biological target: G protein-coupled receptor kinase 5 (Homo sapiens) (UniProt P34947); test: Inhibition of recombinant human full-length GST-tagged GRK5 expressed in insect cells at 2 uM using Ser/Thr 16 as substrate measured after 1 hr by Z'-LYTE assay relative to control; details: Insect cell
# Chain of G protein-coupled receptor kinase 5 (Homo sapiens) (P34947 whole entry, looked up, the tested form may be a part): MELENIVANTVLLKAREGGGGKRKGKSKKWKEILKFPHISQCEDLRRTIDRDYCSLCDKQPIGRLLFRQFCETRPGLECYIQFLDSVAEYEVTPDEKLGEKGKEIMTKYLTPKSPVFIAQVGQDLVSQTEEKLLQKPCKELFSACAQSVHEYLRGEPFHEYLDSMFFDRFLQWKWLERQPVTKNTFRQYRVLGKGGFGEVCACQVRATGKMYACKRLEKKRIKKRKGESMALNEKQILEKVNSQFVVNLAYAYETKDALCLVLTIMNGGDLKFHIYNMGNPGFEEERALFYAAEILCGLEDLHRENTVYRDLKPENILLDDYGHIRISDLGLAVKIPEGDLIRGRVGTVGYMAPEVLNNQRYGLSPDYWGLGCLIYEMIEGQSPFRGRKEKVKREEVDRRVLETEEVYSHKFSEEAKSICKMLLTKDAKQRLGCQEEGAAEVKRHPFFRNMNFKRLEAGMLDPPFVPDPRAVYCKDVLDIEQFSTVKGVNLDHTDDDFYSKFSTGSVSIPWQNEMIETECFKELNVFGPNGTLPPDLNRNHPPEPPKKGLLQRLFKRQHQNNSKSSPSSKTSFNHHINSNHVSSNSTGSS
# [10] = biological target: Tyrosine-protein kinase JAK3 (Homo sapiens) (UniProt P52333); test: Inhibition of recombinant human GST-tagged JAK3 (781-1124 residues) expressed in insect cells at 2 uM using Tyr 06 as substrate measured after 1 hr by Z'-LYTE assay relative to control; details: Insect cell
# [11] = biological target: Dual specificity mitogen-activated protein kinase kinase 1 (Homo sapiens) (UniProt Q02750); test: Inhibition of recombinant human full length His-tagged MAP2K1 expressed in baculovirus expression system at 2 uM using Ser/Thr 03 as substrate measured after 1 hr by Z'-LYTE assay relative to control
# Chain of Dual specificity mitogen-activated protein kinase kinase 1 (Homo sapiens) (Q02750 whole entry): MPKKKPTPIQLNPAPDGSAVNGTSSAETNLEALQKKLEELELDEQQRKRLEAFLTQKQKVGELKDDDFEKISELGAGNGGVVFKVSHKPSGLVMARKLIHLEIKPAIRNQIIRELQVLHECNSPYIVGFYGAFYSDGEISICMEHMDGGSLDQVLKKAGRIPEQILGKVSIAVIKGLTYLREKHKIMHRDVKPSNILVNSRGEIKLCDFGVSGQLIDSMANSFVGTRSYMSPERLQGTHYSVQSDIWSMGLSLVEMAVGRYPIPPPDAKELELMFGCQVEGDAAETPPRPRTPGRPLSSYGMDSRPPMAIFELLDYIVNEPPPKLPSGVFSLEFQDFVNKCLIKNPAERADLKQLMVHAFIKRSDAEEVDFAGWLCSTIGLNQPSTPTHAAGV
# [12] = biological target: Mitogen-activated protein kinase 1 (Homo sapiens) (UniProt P28482); test: Inhibition of recombinant human full length GST-tagged MAPK1 expressed in E.coli at 2 uM using Ser/Thr 03 as substrate measured after 1 hr by Z'-LYTE assay relative to control
# [13] = biological target: MAP kinase-activated protein kinase 5 (Homo sapiens) (UniProt Q8IW41); test: Inhibition of recombinant human full length His-tagged MAPKAPK5 expressed in baculovirus expression system at 2 uM using Ser/Thr 04 as substrate measured after 1 hr by Z'-LYTE assay relative to control
# [14] = biological target: Serine/threonine-protein kinase PAK 4 (Homo sapiens) (UniProt O96013); test: Inhibition of recombinant human GST-tagged PAK4 (295-591 residues) expressed in insect cells at 2 uM using Ser/Thr 20 as substrate measured after 1 hr by Z'-LYTE assay relative to control; details: Insect cell
# Chain of Serine/threonine-protein kinase PAK 4 (Homo sapiens) (O96013 whole entry, looked up, the tested form may be a part): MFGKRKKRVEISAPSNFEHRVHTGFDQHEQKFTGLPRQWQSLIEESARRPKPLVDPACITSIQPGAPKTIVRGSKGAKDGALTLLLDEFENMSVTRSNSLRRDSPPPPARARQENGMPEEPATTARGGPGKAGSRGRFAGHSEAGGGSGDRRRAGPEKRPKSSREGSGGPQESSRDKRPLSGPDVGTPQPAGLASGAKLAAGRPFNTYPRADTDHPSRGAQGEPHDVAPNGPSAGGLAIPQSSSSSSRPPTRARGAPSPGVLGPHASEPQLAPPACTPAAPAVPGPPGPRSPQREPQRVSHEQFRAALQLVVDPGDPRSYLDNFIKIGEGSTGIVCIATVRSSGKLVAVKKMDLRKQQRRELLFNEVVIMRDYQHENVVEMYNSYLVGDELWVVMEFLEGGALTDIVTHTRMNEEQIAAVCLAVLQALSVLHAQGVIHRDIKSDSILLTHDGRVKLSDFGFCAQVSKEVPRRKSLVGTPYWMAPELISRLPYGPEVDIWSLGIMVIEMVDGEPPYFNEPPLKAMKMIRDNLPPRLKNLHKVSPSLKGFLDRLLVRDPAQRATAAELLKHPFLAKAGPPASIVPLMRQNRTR
# [15] = biological target: Protein kinase C theta type (Homo sapiens) (UniProt Q04759); test: Inhibition of recombinant human PRKCQ at 2 uM using Ser/Thr 07 as substrate measured after 1 hr by Z'-LYTE assay relative to control
# [16] = biological target: Protein-tyrosine kinase 2-beta (Homo sapiens) (UniProt Q14289); test: Inhibition of recombinant human full length GST-tagged PTK2B expressed in insect cells at 2 uM using Tyr 01 as substrate measured after 1 hr by Z'-LYTE assay relative to control; details: Insect cell
# [17] = biological target: Proto-oncogene tyrosine-protein kinase ROS (Homo sapiens) (UniProt P08922); test: Inhibition of recombinant human GST-tagged ROS1 (1883-2347 residues) expressed in insect cells at 2 uM using Tyr 01 as substrate measured after 1 hr by Z'-LYTE assay relative to control; details: Insect cell
# [18] = biological target: Proto-oncogene tyrosine-protein kinase Src (Homo sapiens) (UniProt P12931); test: Inhibition of recombinant human full length His-tagged SRC expressed in insect cells at 2 uM using Tyr 02 as substrate measured after 1 hr by Z'-LYTE assay relative to control; details: Insect cell
# Chain of Proto-oncogene tyrosine-protein kinase Src (Homo sapiens) (P12931 2-536 limits assumed): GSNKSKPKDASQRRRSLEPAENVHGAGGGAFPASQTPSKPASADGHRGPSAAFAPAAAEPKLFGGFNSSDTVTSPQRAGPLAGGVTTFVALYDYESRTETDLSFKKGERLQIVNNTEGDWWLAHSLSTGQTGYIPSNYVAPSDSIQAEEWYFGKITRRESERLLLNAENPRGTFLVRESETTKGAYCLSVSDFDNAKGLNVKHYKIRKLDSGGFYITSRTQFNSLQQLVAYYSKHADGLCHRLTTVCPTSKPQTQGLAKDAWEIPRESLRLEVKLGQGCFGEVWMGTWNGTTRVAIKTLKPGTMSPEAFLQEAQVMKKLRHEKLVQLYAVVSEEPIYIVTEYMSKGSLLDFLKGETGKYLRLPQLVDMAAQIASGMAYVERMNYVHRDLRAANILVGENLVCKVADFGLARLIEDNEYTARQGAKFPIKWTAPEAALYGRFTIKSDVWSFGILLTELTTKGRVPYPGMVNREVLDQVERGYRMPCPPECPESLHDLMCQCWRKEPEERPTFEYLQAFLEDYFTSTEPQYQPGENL
# 786-0 = test: Antiproliferative activity against human 786-0 cells assessed as cell growth inhibition incubated for 24 hrs by MTS assay; type: functional, cell-based; details: 786-0, 24 h
# A549 = test: Antiproliferative activity against human A549 cells assessed as cell growth inhibition at 10 micromol/L incubated for 3 days by MTS assay relative to control; type: functional; details: A549, 72 h, dose 10 µmol/L, time 3 day
# PC3MM2 = test: Induction of apoptosis in human PC3MM2 cells assessed as reduction in S phase at 1 micromol/L incubated for 24 hrs by FACS analysis; type: functional, cell-based; details: dose 1.0 µmol/L
# MDA-MB-361 [19] = test: Induction of apoptosis in human MDA-MB-361 cells assessed as induction in cell death at 30 nmol/L incubated for 48 hrs by FACS analysis relative to control; type: functional
# HT-29 = test: Induction of apoptosis in human HT-29 cells assessed as increase in PARP cleavage at 0.3 to 3 micromol/L incubated for 48 hrs by Western blot analysis; type: functional, cell-based; details: dose 0.3-3 µmol/L
# MDA-MB-361 [20] = test: Inhibition of protein synthesis in human MDA-MB-361 cells at 1 micromol/L incubated for 3 hrs by [3H] methionine incorporation based scintillation counter analysis relative to control; type: functional; details: MDA-MB-361, 3 h, dose 1 µmol/L
# MDA-MB-361 [21] = test: Antitumor activity against human MDA-MB-361 cells xenografted in female nude mouse model assessed as suppression in P-S6K at T389 level at 50 mg/kg, iv administered once a week and measured at least 8 hrs by immunoblot analysis; type: functional, organism-based
# MDA-MB-361 [22] = test: Antitumor activity against human MDA-MB-361 cells xenografted in female nude mouse model assessed as reduction in P-AKT at T308 level at 50 mg/kg, iv administered once a week and measured at least 8 hrs by immunoblot analysis; type: functional, organism-based
# Chain of RAC-alpha serine/threonine-protein kinase (Homo sapiens) (P31749 whole entry, the tested form may be a part): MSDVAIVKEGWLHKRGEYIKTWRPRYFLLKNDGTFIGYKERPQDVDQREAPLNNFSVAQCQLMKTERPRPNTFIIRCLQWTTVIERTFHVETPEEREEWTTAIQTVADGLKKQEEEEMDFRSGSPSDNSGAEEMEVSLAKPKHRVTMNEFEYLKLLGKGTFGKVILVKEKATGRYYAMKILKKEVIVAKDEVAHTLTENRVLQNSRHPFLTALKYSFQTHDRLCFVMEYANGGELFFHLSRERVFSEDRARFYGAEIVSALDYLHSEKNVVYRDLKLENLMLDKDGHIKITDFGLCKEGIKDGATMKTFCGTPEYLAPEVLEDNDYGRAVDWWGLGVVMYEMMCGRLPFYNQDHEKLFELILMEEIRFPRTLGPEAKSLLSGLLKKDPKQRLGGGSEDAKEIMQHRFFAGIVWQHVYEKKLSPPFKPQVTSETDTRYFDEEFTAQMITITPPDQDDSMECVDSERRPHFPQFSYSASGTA
structure (smiles),measurement,setting,value
CNC(=O)Nc1ccc(-c2nc(N3CC4CCC(C3)O4)c3cnn(C4CCC5(CC4)OCCO5)c3n2)cc1,inhibition,[1],-5%
same,inhibition,[2],0%
same,inhibition,[3],8%
same,inhibition,[4],2%
same,inhibition,[5],3%
same,inhibition,[6],3%
same,inhibition,[7],4%
same,inhibition,[8],4%
same,inhibition,[9],-4%
same,inhibition,[10],0%
same,inhibition,[11],3%
same,inhibition,[12],0%
same,inhibition,[13],5%
same,inhibition,[14],13%
same,inhibition,[15],5%
same,inhibition,[16],-3%
same,inhibition,[17],2%
same,inhibition,[18],3%
same,IC50,786-0,120 nM
same,inhibition at 10 µM,A549,100%
same,Activity,PC3MM2,Active
same,Activity,MDA-MB-361 [19],13%
same,Activity,HT-29,inactive
same,inhibition at 1 µM,MDA-MB-361 [20],~50%
same,Activity,MDA-MB-361 [21],Active
same,Activity,MDA-MB-361 [22],inactive
